Test results as given in patent US10954267B2, “Dipeptide comprising a non-proteogenic amino acid” (Novo Nordisk A/S, priority 2011, dated 2021).
Square brackets hold non-standard residues; d marks the D form. Peptide text beside a SMILES is read from it. * marks the point of attachment. Fmoc = O=C(OCC1c2ccccc2-c2ccccc21)*; Aib = CC(C)(N)C(=O)O

Assay: Storage stability studies of the dipeptide TFA salt
Type: physicochemical
Experimental: Fmoc-His(Trt)-Aib-OH (1 moleq., starting material) was suspended in DCM (1.5 mL/g) and TIPS (1.7 moleq.) was added. Cooled (0-10° C.) TFA (3 mL/g) was added and the mixture was stirred at ambient temperature until the reaction was completed (High-performance liquid chromatography (HPLC) conversion). DME (1 mL/g starting material) and TBME (11 mL/g starting material) was added leading to an increase in temperature. The temperature was slowly allowed to return to room temperature (rt) resulting in precipitation of a white solid. The mixture was stirred for an additional 3 hr and filtered. The precipitate was washed twice with TBME (3 mL/g starting material) and dried overnight in vacuo affording the de-tritylated dipeptide as TFA-salt in 90% yield.

Measured: stability (storage)

CC(C)(NC(=O)[C@H](Cc1c[nH]cn1)NC(=O)OCC1c2ccccc2-c2ccccc21)C(=O)O [Example 1, 2-[(S)-2-(9H-Fluoren-9-ylmethoxycarbonylamino)-3-(1H-imidazol-4-yl)-propanoylamino]-2-methyl-propanoic Acid Trifluoracatate] (Fmoc-His-[Aib]-OH)
more than 24 month: freeze (<−15° C.±5° C.) | fridge (5° C.±3° C.) | room temperature (20° C.±3° C.)
